The results in this text go back to patent US20130116241A1, “NOVEL INHIBITOR COMPOUNDS OF PHOSPHODIESTERASE TYPE 10A” (AbbVie Inc., priority 2011, published 2013).

Structures are written as SMILES. Counter-ions that a name gives are not always drawn. Like-named read-outs stand apart in the source and are kept apart here.

This test addresses human PDE10A (UniProt Q9Y233). Nature of the test: Measurement of PDE activity (recombinant enzyme, HTRF cAMP kit). As to conditions: Table 1, substrate 20 nM for PDE10, 60 minutes at 29 C. Format: biochemical. The method in brief:
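Recombinant human PDE10A (10–250 pM range across PDEs) with 20 nM cAMP substrate in 20 mM Tris-HCl pH 7.5, 10 mM MgCl2, 0.1% BSA, compound pre-mixed with enzyme. Ran 60 min at 29 °C. Remaining cAMP read by HTRF, converted to % of uninhibited activity, and IC50 fitted.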

human PDE10A, sequence (Q9Y233 290-1055 limits assumed): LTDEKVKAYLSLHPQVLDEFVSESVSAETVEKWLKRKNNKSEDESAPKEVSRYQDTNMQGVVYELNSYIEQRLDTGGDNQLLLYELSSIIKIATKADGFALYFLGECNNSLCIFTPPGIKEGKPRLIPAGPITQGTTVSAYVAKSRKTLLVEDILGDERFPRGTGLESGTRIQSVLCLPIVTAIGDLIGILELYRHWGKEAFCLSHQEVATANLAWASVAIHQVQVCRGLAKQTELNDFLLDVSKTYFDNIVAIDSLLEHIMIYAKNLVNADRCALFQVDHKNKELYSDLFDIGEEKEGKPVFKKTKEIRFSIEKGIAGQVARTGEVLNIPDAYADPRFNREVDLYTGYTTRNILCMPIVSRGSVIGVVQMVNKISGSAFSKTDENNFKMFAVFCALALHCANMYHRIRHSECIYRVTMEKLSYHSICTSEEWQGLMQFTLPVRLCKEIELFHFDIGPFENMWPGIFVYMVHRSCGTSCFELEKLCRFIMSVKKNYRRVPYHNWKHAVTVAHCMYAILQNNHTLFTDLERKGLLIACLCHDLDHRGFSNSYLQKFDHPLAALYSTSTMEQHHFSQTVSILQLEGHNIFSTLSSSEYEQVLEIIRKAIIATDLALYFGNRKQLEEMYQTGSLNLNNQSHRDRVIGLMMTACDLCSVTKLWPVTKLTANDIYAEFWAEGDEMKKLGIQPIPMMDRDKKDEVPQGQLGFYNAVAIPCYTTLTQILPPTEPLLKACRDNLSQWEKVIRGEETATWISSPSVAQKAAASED

With `O=c1c2c(N3CC[C@@H](O)C3)cccc2ccn1C1CC1c1ccc2ccccc2n1` (stereo partly drawn) [Example 250, anti 8-((3R)-3-hydroxypyrrolidin-1-yl)-2-(2-(quinolin-2-yl)cyclopropyl)isoquinolin-1(2H)-one (2E)-but-2-enedioate], the concentration for half-maximal inhibition (IC50) (read-out: IC50) was 100 to 200 nM.
The same measure, in the same setting: to `O=c1c2c(-c3ccncc3)cccc2ccn1C1CC1c1ccc2ccccc2n1` (stereo not drawn) [Example 256, syn 8-(pyridin-4-yl)-2-(2-(quinolin-2-yl)cyclopropyl)isoquinolin-1(2H)-one hydrochloride] belongs < 100 nM.
On the same count and under the same terms, as for `O=c1c2c(C3CCOCC3)cccc2ccn1C1CC1c1ccc2ccccc2n1` (stereo not drawn) [Example 257, anti 2-(2-(quinolin-2-yl)cyclopropyl)-8-(tetrahydro-2H-pyran-4-yl)isoquinolin-1(2H)-one], the figure is < 100 nM; as for `O=c1c2c(N3CCC(C(F)F)C3)cccc2ccn1C1CC1c1ccc2ccccc2n1` (stereo not drawn) [Example 262, anti 8-(3-(difluoromethyl)pyrrolidin-1-yl)-2-(2-(quinolin-2-yl)cyclopropyl)isoquinolin-1(2H)-one, trifluoroacetate], 100 to 200 nM.
`O=c1c2c(N3C4CCC3COC4)cccc2ccn1C1CC1c1ccc2ccccc2n1` [Example 263, anti 8-((1R,5S)-3-oxa-8-azabicyclo[3.2.1]octan-8-yl)-2-(2-(quinolin-2-yl)cyclopropyl)isoquinolin-1(2H)-one]: the 50% inhibitory concentration (IC50) was < 100 nM.
With `O=c1c2c(N3C[C@H]4CC[C@@H](C3)O4)cccc2ccn1C1CC1c1ccc2ccccc2n1` (stereo partly drawn) [Example 266, 8-((1R,5S)-8-oxa-3-azabicyclo[3.2.1]octan-3-yl)-2-(2-(quinolin-2-yl)cyclopropyl)isoquinolin-1(2H)-one], the 50% inhibitory concentration (IC50) (read-out: IC50) was < 100 nM.
The same measure, in the same setting: to `O=c1c2c(-c3ccoc3)cccc2ccn1C1CC1c1ccc2ccccc2n1` (stereo not drawn) [Example 268, anti 8-(furan-3-yl)-2-(2-(quinolin-2-yl)cyclopropyl)isoquinolin-1(2H)-one] belongs < 100 nM; to `O=c1c2c(C3=COCC3)cccc2ccn1C1CC1c1ccc2ccccc2n1` (stereo not drawn) [Example 269, anti 8-(4,5-dihydrofuran-3-yl)-2-(2-(quinolin-2-yl)cyclopropyl)isoquinolin-1(2H)-one], < 100 nM; to `O=c1c2c(-c3cccnc3)cccc2ccn1C1CC1c1ccc2cc(F)ccc2n1` (centres unmarked) [Example 272], < 100 nM.
On the same count and under the same terms, to `O=c1c2c(-c3ccncc3)cccc2ccn1C1CC1c1ccc2cc(F)ccc2n1` (centres unmarked) [Example 274] belongs < 100 nM.
Still for that read-out and setting: to `O=c1c2c(-c3ccncc3)cccc2c(F)cn1C1CC1c1ccc2ccccc2n1` (stereo not drawn) [Example 275, anti 4-fluoro-8-(pyridin-4-yl)-2-(2-(quinolin-2-yl)cyclopropyl)isoquinolin-1(2H)-one] belongs < 100 nM.
In the case of `O=c1c2c(-c3ccncc3)cncc2cnn1CCc1ccc2ccccc2n1` [Example 301, 8-(pyridin-4-yl)-2-[2-(quinolin-2-yl)ethyl]pyrido[3,4-d]pyridazin-1(2H)-one], the IC50 (read-out: IC50) is < 100 nM.
Still for that read-out and setting: as for `O=c1c2c(-c3ccncc3)csc2c(F)cn1C1CC1c1ccc2ccccc2n1` (centres unmarked) [compound 279], the figure is < 100 nM.
Same read-out and setting: as for `O=c1c2c(-c3ccnc(F)c3)csc2ccn1C1CC1c1ccc2cc(F)ccc2n1` (centres unmarked) [compound 280], the figure is < 100 nM; as for `O=c1c2c(-c3ccncc3)csc2ccn1C1CC1c1ccc2cc(F)ccc2n1` (centres unmarked) [compound 281], < 100 nM; as for `O=c1c2c(-c3cncnc3)csc2ccn1C1CC1c1ccc2ccccc2n1` (centres unmarked) [compound 282], < 100 nM.
In the case of `O=c1c2c(-c3ccc(F)nc3)csc2ccn1C1CC1c1ccc2ccccc2n1` (centres unmarked) [compound 283], under “read-out: IC50”, the concentration for half-maximal inhibition (IC50) was < 100 nM.
On the same count and under the same terms, to `Cc1ncc(-c2csc3ccn(C4CC4c4ccc5ccccc5n4)c(=O)c23)cn1` (centres unmarked) [compound 284] belongs < 100 nM; to `O=c1c2c(-c3ccnnc3)csc2ccn1C1CC1c1ccc2ccccc2n1` (centres unmarked) [compound 285], < 100 nM.
The same measure, in the same setting: as for `O=c1c2c(N3CCOCC3)csc2ccn1C1CC1c1ccc2ccccc2n1` (centres unmarked) [compound 287], the figure is < 100 nM; as for `O=c1c2c(-c3cccnc3)csc2ccn1C1CC1c1ccc2sccc2n1` (centres unmarked) [compound 288], < 100 nM; as for `O=c1c2c(-c3cccnc3)csc2ccn1C1CC1c1ccc2ccccc2n1` (centres unmarked) [compound 289], < 100 nM.
The same measure, in the same setting: to `O=c1c2c(-c3cncnc3)csc2cnn1C1CC1c1ccc2ccccc2n1` (centres unmarked) [compound 290] belongs < 100 nM; to `O=c1c2c(-c3ccncc3)csc2cnn1C1CC1c1ccc2sccc2n1` (centres unmarked) [compound 291], < 100 nM; to `O=c1c2c(-c3ccncc3)csc2ccn1C1CC1c1ccc2sccc2n1` (centres unmarked) [compound 292], < 100 nM.
`O=c1c2c(-c3ccncc3)csc2ccn1C1CC1c1ccc2ccccc2n1` (centres unmarked) [compound 293]: for the setting “read-out: IC50”, the concentration for half-maximal inhibition (IC50) is < 100 nM.
As for `O=c1c2c(-c3ccncc3)csc2cnn1C1CC1c1ccc2ccccc2n1` (centres unmarked) [compound 295], the IC50 (read-out: IC50) was < 100 nM.
Still for that read-out and setting: as for `O=c1c2cccc(-c3cncnc3)c2ccn1C1CC1c1ccc2ccccc2n1` (centres unmarked) [compound 296], the figure is 100 to 200 nM; as for `O=c1c2cccc(-c3ccncc3)c2ccn1C1CC1c1ccc2ccccc2n1` (centres unmarked) [compound 297], < 100 nM.
Still for that read-out and setting: as for `O=c1c2cccc(-c3cccnc3)c2ccn1C1CC1c1ccc2ccccc2n1` (centres unmarked) [compound 298], the figure is 100 to 200 nM; as for `O=c1c2cccc(N3CCOCC3)c2ccn1C1CC1c1ccc2ccccc2n1` (centres unmarked) [compound 299], < 100 nM; as for `Cn1cnc(-c2nn(CCc3cn4ccccc4n3)c(=O)c3c(-c4ccncc4)csc23)c1` [compound 302, 5-[2-(imidazo[1,2-a]pyridin-2-yl)ethyl]-7-(1-methyl-1H-imidazol-4-yl)-3-(pyridin-4-yl)thieno[2,3-d]pyridazin-4(5H)-one], < 100 nM.
Same read-out and setting: as for `Cn1cc(-c2nn(CCc3cn4ccccc4n3)c(=O)c3c(-c4ccncc4)csc23)cn1` [compound 303, 5-[2-(imidazo[1,2-a]pyridin-2-yl)ethyl]-7-(1-methyl-1H-pyrazol-4-yl)-3-(pyridin-4-yl)thieno[2,3-d]pyridazin-4(5H)-one], the figure is < 100 nM.
As to `O=c1c2c(-c3ccncc3)csc2c(-c2cccnc2)nn1CCc1cn2ccccc2n1` [compound 304, 5-[2-(imidazo[1,2-a]pyridin-2-yl)ethyl]-7-(pyridin-3-yl)-3-(pyridin-4-yl)thieno[2,3-d]pyridazin-4(5H)-one], the IC50 (read-out: IC50) was < 100 nM.
Same read-out and setting: as for `Cc1cc2ccccc2nc1CCn1ccc2scc(-c3ccncc3)c2c1=O` [compound 306, 5-[2-(3-methylquinolin-2-yl)ethyl]-3-(pyridin-4-yl)thieno[3,2-c]pyridin-4(5H)-one], the figure is < 100 nM; as for `O=c1c2c(-c3ccncc3)csc2ccn1CCc1ccc2cccc(F)c2n1` [compound 307, 5-[2-(8-fluoroquinolin-2-yl)ethyl]-3-(pyridin-4-yl)thieno[3,2-c]pyridin-4(5H)-one], 200 to 500 nM.
With `O=c1c2c(-c3cccnc3)csc2ccn1CCc1ccc2cc(F)ccc2n1` [compound 308, hydrochloride], for the setting “read-out: IC50”, the IC50 is < 100 nM.
The same measure, in the same setting: to `O=c1c2c(-c3ccncc3)csc2ccn1CCc1ccc2cc(F)ccc2n1` [compound 309, 5-[2-(6-fluoroquinolin-2-yl)ethyl]-3-(pyridin-4-yl)thieno[3,2-c]pyridin-4(5H)-one] belongs < 100 nM; to `O=c1c2c(-c3cccnc3)csc2ccn1CCc1cn2ccccc2n1` [compound 310, 5-[2-(imidazo[1,2-a]pyridin-2-yl)ethyl]-3-(pyridin-3-yl)thieno[3,2-c]pyridin-4(5H)-one], < 100 nM.
The same measure, in the same setting: as for `O=c1c2c(-c3ccncc3)csc2cnn1CCc1cnc2ccccc2n1` [compound 311, hydrochloride], the figure is 100 to 200 nM.
Same read-out and setting: as for `O=c1c2c(-c3ccncc3)csc2cnn1CCc1ccc2ncccc2n1` [compound 312, 5-[2-(1,5-naphthyridin-2-yl)ethyl]-3-(pyridin-4-yl)thieno[2,3-d]pyridazin-4(5H)-one], the figure is < 100 nM; as for `O=c1c2c(-c3cc[nH]n3)csc2cnn1CCc1ccc2ccccc2n1` [compound 315, 3-(1H-pyrazol-3-yl)-5-[2-(quinolin-2-yl)ethyl]thieno[2,3-d]pyridazin-4(5H)-one], < 100 nM; as for `O=c1c2c(-c3ccncc3)csc2cnn1CCc1nc2ccccc2[nH]1` [compound 317, hydrochloride], < 100 nM.
With `O=c1c2c(-c3ccncc3)csc2cnn1CCc1ccc2cc(Cl)ccc2n1` [compound 318, hydrochloride], the IC50 (read-out: IC50) lay within 200 to 500 nM.
The same measure, in the same setting: as for `O=c1c2c(C#Cc3cccnc3)csc2cnn1CCc1ccc2ccccc2n1` [compound 319, hydrochloride], the figure is < 100 nM.
For the compound `O=c1c2c(C#Cc3ccncc3)csc2cnn1CCc1ccc2ccccc2n1` [compound 320, hydrochloride], the IC50 (read-out: IC50) was in the range of 200 to 500 nM.
Same read-out and setting: as for `Cc1cnc(CCn2ncc3scc(-c4ccncc4)c3c2=O)c(C)c1` [compound 321, 5-[2-(3,5-dimethylpyridin-2-yl)ethyl]-3-(pyridin-4-yl)thieno[2,3-d]pyridazin-4(5H)-one], the figure is 100 to 200 nM.
As to `O=c1c2c(-c3ccncc3)csc2cnn1CCc1ccc2ccc(F)cc2n1` [compound 322, 5-[2-(7-fluoroquinolin-2-yl)ethyl]-3-(pyridin-4-yl)thieno[2,3-d]pyridazin-4(5H)-one], under “read-out: IC50”, the IC50 is 200 to 500 nM.
On the same count and under the same terms, as for `Cc1cc2ccccc2nc1CCn1ccc2cccc(-c3ccncc3)c2c1=O` [compound 327, 2-[2-(3-methylquinolin-2-yl)ethyl]-8-(pyridin-4-yl)isoquinolin-1(2H)-one], the figure is < 100 nM.
As to `O=c1c2c(-c3cc[nH]n3)cccc2cnn1CCc1cn2ccccc2n1` [compound 328, 2-[2-(imidazo[1,2-a]pyridin-2-yl)ethyl]-8-(1H-pyrazol-3-yl)phthalazin-1(2H)-one], the IC50 (read-out: IC50) is 200 to 500 nM.
